Reference: the NIST ThermoML archive (doi:10.1016/j.jct.2013.05.019)

Test: xn = mol fraction of the nth substance listed
Details: 101 kPa, Liquid; for viscosity: Falling or rolling sphere viscometry; for mass density: Vibrating tube method; for electrical conductivity: Alternating current cell with electrodes

CCCC[NH3+].O=[N+]([O-])[O-] [n-butylammonium nitrate] + O
Details	electrical conductivity [S/m]	mass density [kg/m3]	viscosity [mPa·s]
293.15 K, x1 = 0.1	–	1059.97	2.468
293.15 K, x1 = 0.2001	–	1081.27	4.454
293.15 K, x1 = 0.3009	–	1090.62	7.217
293.15 K, x1 = 0.4004	–	1095.83	11.69
293.15 K, x1 = 0.5011	–	1099.15	17.61
293.15 K, x1 = 0.6505	–	1102.02	31.21
293.15 K, x1 = 0.7869	–	1103.62	51.54
293.15 K, x1 = 0.9022	–	1104.42	78.32
293.15 K, x1 = 1	–	1104.68	111.35
298.15 K, x1 = 0.001	0.583	–	–
298.15 K, x1 = 0.002	0.997	–	–
298.15 K, x1 = 0.004	1.55	–	–
298.15 K, x1 = 0.005	1.73	–	–
298.15 K, x1 = 0.006	1.89	–	–
298.15 K, x1 = 0.0081	2.18	–	–
298.15 K, x1 = 0.02	2.95	–	–
298.15 K, x1 = 0.03	3.19	–	–
298.15 K, x1 = 0.05	3.4	–	–
298.15 K, x1 = 0.0609	3.46	–	–
298.15 K, x1 = 0.1	3.42	1056.89	2.221
298.15 K, x1 = 0.1999	3.31	–	–
298.15 K, x1 = 0.2001	–	1078.05	3.908
298.15 K, x1 = 0.2997	2.95	–	–
298.15 K, x1 = 0.3009	–	1087.35	6.297
298.15 K, x1 = 0.3999	2.52	–	–
298.15 K, x1 = 0.4004	–	1092.56	10.08
298.15 K, x1 = 0.4998	2.08	–	–
298.15 K, x1 = 0.5011	–	1095.89	15.1
298.15 K, x1 = 0.5986	1.77	–	–
298.15 K, x1 = 0.6505	–	1098.8	26.25
298.15 K, x1 = 0.6979	1.45	–	–
298.15 K, x1 = 0.7869	–	1100.42	42.46
298.15 K, x1 = 0.799	1.23	–	–
298.15 K, x1 = 0.9001	1.01	–	–
298.15 K, x1 = 0.9022	–	1101.25	65.05
298.15 K, x1 = 1	0.867	1101.52	89.95
303.15 K, x1 = 0.1	–	1053.73	1.963
303.15 K, x1 = 0.2001	–	1074.8	3.459
303.15 K, x1 = 0.3009	–	1084.06	5.545
303.15 K, x1 = 0.4004	–	1089.29	8.783
303.15 K, x1 = 0.5011	–	1092.64	13.08
303.15 K, x1 = 0.6505	–	1095.58	22.35
303.15 K, x1 = 0.7869	–	1097.24	35.45
303.15 K, x1 = 0.9022	–	1098.1	53.53
303.15 K, x1 = 1	–	1098.38	73.04
308.15 K, x1 = 0.1	–	1050.52	1.754
308.15 K, x1 = 0.2001	–	1071.53	3.088
308.15 K, x1 = 0.3009	–	1080.78	4.924
308.15 K, x1 = 0.4004	–	1086.02	7.715
308.15 K, x1 = 0.5011	–	1089.4	11.42
308.15 K, x1 = 0.6505	–	1092.38	19.25
308.15 K, x1 = 0.7869	–	1094.08	29.98
308.15 K, x1 = 0.9022	–	1094.97	44.59
308.15 K, x1 = 1	–	1095.26	60.25
313.15 K, x1 = 0.1	–	1047.4	1.579
313.15 K, x1 = 0.2001	–	1068.24	2.774
313.15 K, x1 = 0.3009	–	1077.49	4.401
313.15 K, x1 = 0.4004	–	1082.76	6.823
313.15 K, x1 = 0.5011	–	1086.16	10.04
313.15 K, x1 = 0.6505	–	1089.2	16.75
313.15 K, x1 = 0.7869	–	1090.94	25.8
313.15 K, x1 = 0.9022	–	1091.86	37.54
313.15 K, x1 = 1	–	1092.17	50.12

CC(=O)O.CCCCN [butylammonium acetate] + O
Details	electrical conductivity [S/m]	mass density [kg/m3]	viscosity [mPa·s]
293.15 K, x1 = 0.031	–	1009.89	2.659
293.15 K, x1 = 0.06	–	1015.91	4.018
293.15 K, x1 = 0.0992	–	1014.35	6.792
293.15 K, x1 = 0.2007	–	1003.86	16.91
293.15 K, x1 = 0.2999	–	993.39	35.04
293.15 K, x1 = 0.4013	–	984.8	53.35
293.15 K, x1 = 0.5004	–	977.72	101.3
293.15 K, x1 = 0.5666	–	974.54	141.64
293.15 K, x1 = 0.7973	–	964.56	390.26
293.15 K, x1 = 0.8972	–	962.15	579.35
293.15 K, x1 = 1	–	959.61	771.69
298.15 K, x1 = 0.0006	0.168	–	–
298.15 K, x1 = 0.0012	0.316	–	–
298.15 K, x1 = 0.0018	0.434	–	–
298.15 K, x1 = 0.0026	0.572	–	–
298.15 K, x1 = 0.0032	0.67	–	–
298.15 K, x1 = 0.0046	0.842	–	–
298.15 K, x1 = 0.0078	1.12	–	–
298.15 K, x1 = 0.0121	1.34	–	–
298.15 K, x1 = 0.0181	1.45	–	–
298.15 K, x1 = 0.031	–	1006.58	2.328
298.15 K, x1 = 0.0329	1.54	–	–
298.15 K, x1 = 0.06	–	1013.18	3.345
298.15 K, x1 = 0.0682	1.58	–	–
298.15 K, x1 = 0.0992	–	1011.15	5.626
298.15 K, x1 = 0.0999	1.54	–	–
298.15 K, x1 = 0.2001	1.16	–	–
298.15 K, x1 = 0.2007	–	1000.82	13.83
298.15 K, x1 = 0.2999	–	990.34	28.14
298.15 K, x1 = 0.3479	0.513	–	–
298.15 K, x1 = 0.4013	–	981.74	46.77
298.15 K, x1 = 0.5004	–	974.67	77.42
298.15 K, x1 = 0.5427	0.164	–	–
298.15 K, x1 = 0.5666	–	971.45	102.65
298.15 K, x1 = 0.7973	–	961.46	283.43
298.15 K, x1 = 0.8065	0.074	–	–
298.15 K, x1 = 0.8972	–	958.98	415.18
298.15 K, x1 = 1	0.021	956.44	546.35
303.15 K, x1 = 0.031	–	1003.24	2.196
303.15 K, x1 = 0.06	–	1009.87	2.864
303.15 K, x1 = 0.0992	–	1007.91	4.714
303.15 K, x1 = 0.2007	–	997.74	11.79
303.15 K, x1 = 0.2999	–	987.26	22.91
303.15 K, x1 = 0.4013	–	978.64	40.9
303.15 K, x1 = 0.5004	–	971.64	60.97
303.15 K, x1 = 0.5666	–	968.34	82.19
303.15 K, x1 = 0.7973	–	958.36	211.13
303.15 K, x1 = 0.8972	–	955.83	304.3
303.15 K, x1 = 1	–	953.33	397.17
308.15 K, x1 = 0.031	–	999.87	1.864
308.15 K, x1 = 0.06	–	1006.52	2.439
308.15 K, x1 = 0.0992	–	1004.62	3.985
308.15 K, x1 = 0.2007	–	994.62	9.893
308.15 K, x1 = 0.2999	–	984.17	18.78
308.15 K, x1 = 0.4013	–	975.55	35.59
308.15 K, x1 = 0.5004	–	968.58	48.93
308.15 K, x1 = 0.5666	–	965.22	65.48
308.15 K, x1 = 0.7973	–	955.23	160.94
308.15 K, x1 = 0.8972	–	952.69	227.72
308.15 K, x1 = 1	–	950.15	294.59
313.15 K, x1 = 0.031	–	996.47	1.665
313.15 K, x1 = 0.06	–	1003.14	2.132
313.15 K, x1 = 0.0992	–	1001.29	3.489
313.15 K, x1 = 0.2007	–	991.43	8.389
313.15 K, x1 = 0.2999	–	981.07	15.67
313.15 K, x1 = 0.4013	–	972.44	31
313.15 K, x1 = 0.5004	–	965.54	42.95
313.15 K, x1 = 0.5666	–	962.11	56.12
313.15 K, x1 = 0.7973	–	952.09	133.31
313.15 K, x1 = 0.8972	–	949.53	180.6
313.15 K, x1 = 1	–	946.98	222.24
